In publication PMC9098870, “Integrated omics approach to unveil antifungal bacterial polyynes as acetyl-CoA acetyltransferase inhibitors” (Communications Biology, 2022):
Values belong to the compound of their own block, whether it stands above or below them.

How the values were obtained:
[1] = biological target: T1, MasL ([Empedobacter] haloabium, UniProt A0A915Q9D3); test: CoA release, fluorescent probe; progress curves, covalent inhibitor model; assay type: biochemical
T1 construct: gene E7V67_18950; recombinant, purified from E. coli; residues 1-394 described; tetramer in solution; reactive Cys90, His350, Cys380; tag details in supplement
Excerpt: CoA release, fluorescent probe; progress curves, covalent inhibitor model on MasL

[2] = biological target: MasL (acetyl-CoA acetyltransferase of Massilia sp. YMA4), apo form (Massilia sp. YMA4); test: crystal structure; X-ray crystal structures of MasL, apo and after incubation with collimonin C or D; a tetramer in the asymmetric unit (space groups P1, P2_(1), P1)
[3] = biological target: MasL (acetyl-CoA acetyltransferase of Massilia sp. YMA4), apo form (Massilia sp. YMA4); test: not stated; oligomeric state of MasL in solution; method not given
[4] = biological target: MasL-collimonin C complex (MasL covalently modified by collimonin C at Cys90) (Massilia sp. YMA4); test: crystal structure; X-ray crystal structures of MasL, apo and after incubation with collimonin C or D; a tetramer in the asymmetric unit (space groups P1, P2_(1), P1)
[5] = biological target: MasL-collimonin D complex (MasL modified by collimonin D) (Massilia sp. YMA4); test: as above

T1 sequence (A0A915Q9D3 entry or part of it): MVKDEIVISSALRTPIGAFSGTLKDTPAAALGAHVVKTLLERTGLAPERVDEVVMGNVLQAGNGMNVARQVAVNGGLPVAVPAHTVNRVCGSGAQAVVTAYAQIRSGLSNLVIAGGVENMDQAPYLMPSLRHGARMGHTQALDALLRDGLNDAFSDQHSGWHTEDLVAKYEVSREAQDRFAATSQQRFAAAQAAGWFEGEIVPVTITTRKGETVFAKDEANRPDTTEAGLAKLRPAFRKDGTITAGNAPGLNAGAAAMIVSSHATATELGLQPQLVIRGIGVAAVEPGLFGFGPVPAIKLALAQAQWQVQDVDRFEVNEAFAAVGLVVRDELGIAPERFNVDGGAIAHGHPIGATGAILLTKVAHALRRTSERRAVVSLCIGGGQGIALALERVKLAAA

Compound: C#CC#CC#C/C=C/C[C@@H](O)[C@@H](O)CCCCC(=O)O [compound 1, collimonin C]
KI (inactivation) ([1]; covalent, irreversible S-alkylation of Cys90, competitive against acetyl-CoA, complex structure 1.66 Å): 297 µM

Compound: C#CC#CC#C/C=C/C[C@@H](O)[C@H](O)CCCCC(=O)O [compound 2, collimonin D]
KI (inactivation) ([1]; covalent, irreversible S-alkylation of Cys90 (by MS), competitive against acetyl-CoA, complex structure 1.40 Å): 42.8 µM

Compound: C#CC#CC#C/C=C/CCC(O)CCCCC(=O)O (centres unmarked) [compound 3, massilin A]
KI (inactivation) ([1]; covalent, adduct by mass spectrometry): 132 µM

Compound: C#CC#CC#C/C=C/CCCCCCCC(=O)O [compound 5, massilin C]
KI (inactivation) ([1]; covalent inhibitor model): 228 µM

stoichiometry N [2]: 4
stoichiometry N [3]: 4
Compound: MasL (acetyl-CoA acetyltransferase of Massilia sp. YMA4), apo form (enzyme)

stoichiometry N [4]: 4
Compound: MasL-collimonin C complex (MasL covalently modified by collimonin C at Cys90) (enzyme)

stoichiometry N [5]: 4
Compound: MasL-collimonin D complex (MasL modified by collimonin D) (enzyme)
